The subject of assay [1] is mixed lymphocyte reaction (spleen cells from female C57BL/6 mice, stimulated with Balb/C spleen cells). The assay is described as follows: Mixed lymphocyte reaction (MLR) assay. The note with it: 50% suppression of proliferation. The class given is cell-based, mouse. How it is done:
Inhibition of cell proliferation by the subject compounds was assayed in the mixed lymphocyte reaction (MLR) (Bradley, 1980; Mishell, 1980). Spleen cells from female C57BL/6 mice, the "responder" cells, were prepared and co-cultured alone or in the presence of varying concentrations of the test compounds, with irradiated spleen cells prepared from female Balb/C mice, the "stimulator" cells. Prior irradiation of the stimulator cells rendered them unable to proliferate. A sample of the responder cells was also irradiated for use as a control. The non-irradiated responder cells proliferate in the presence of the allogenic stimulator cells. After a 78-hour incubation, tritiated thymidine was added to the mixed cell cultures, and incorporation of the labeled nucleotide into DNA was measured as an index of cell proliferation.
In this study, the responder cells (R) were spleen cells from female C57BL16 mice, and the stimulator cells (S) were spleen cells from female Balb/C mice 6 to 8 weeks of age (Jackson, Bar Harbor, Me.). The spleens were aseptically removed from the mice and placed into 10 ml of cold HBSS in a sterile petri dish. The spleen was cut in half and gently pressed between the frosted ends of 2 sterile microslides. The cell suspension was then filtered through sterile nylon mesh (Nytex, Tetco #HD-3-85) into a 15 ml conical polypropylene centrifuge tube and centrifuged at 200×g for 10 minutes in a Beckman GPR tabletop centrifuge (GH-3.7 Rotor). Following an additional wash in HBSS, the spleen cells were resuspended in RPMI 1640 medium (Gibco) containing 50 uM 2-mercaptoethanol, 2 mM glutamine, 100 U/ml penicillin, 100 μg/ml streptomycin and 10% heat-inactivated fetal bovine serum.
The stimulator cells (S) and part of the responder cells (R) were diluted at 10×10^6 cells/ml and irradiated at 20 cGy with a Cesium Irradiator (Department of Radiation Oncology, Stanford University, California) to inhibit proliferation. The irradiated cells were washed once to remove any toxic free radicals and their products resulting from irradiation. The responder cells (R), irradiated stimulator cells (Sx) and irradiated responder cell (Rx) were all diluted to 4×10^6 cells/ml.
In the assay, 4×10^5 cells of R were cocultured with 4×10^5 cells of Sx in 200 μl of medium in round bottom 96 well tissue culture plates. Fifty micro-liters of test samples at various concentrations were added to the cells. The wells receiving no test samples would get the maximum proliferation. Several controls were used in the assay. The irradiated responder cells (Rx) were also added to the responder cells with and without the test samples. Rx or Sx alone were checked to make sure no proliferation occurred after irradiation. The spontaneous proliferation of R was also measured.
The culture plates were incubated at 37° C. in a 5% CO2 incubator for four days. The cells were labelled with 1 μCi of (^3 H)-thymidine (Amersham, 49 Ci/mmol) in 20 μl of medium for the last 18 hours. Cells were then harvested and counted. The results were reported as counts per minute (cpm) per well. Percent of suppression and IC50 (concentration of sample producing 50% suppression of proliferation) were used to indicate the suppressive activity of the sample. Sample cpm was calculated as (R+Sx+sample)cpm-(R+Rx+sample)cpm; control cpm was calculated as (R+Sx)cpm-(R+Rx)cpm. Percent suppression of MLR activity was calculated as (1-sample cpm/control cpm)×100. IC50 was determined from percent suppression to indicate the suppressive activity of the sample.

The subject of assay [2] is IL-1β action on murine thymocytes. Put plainly: Inhibition of IL-1 action (IL-1 assay): suppression of IL-1β + PHA stimulated murine thymocyte proliferation. The class given is cell-based, mouse (C3H/HeN). The settings on record: 50% suppression of proliferation, 72 h culture. The method, then:
The ability of the above compounds to suppress the cell-proliferative effect of IL-1β in vitro (O'Gara, 1990) was examined as described in Example 11. Mouse thymocytes in culture were stimulated with IL-1β in the presence of phytohemagglutinin (PHA) and increasing concentrations of triptolide (control) and triptolide derivatives. The cells were cultured for 72 hours, and during the last 18 hours, incubated with tritiated thymidine. DNA synthesis was assessed by measuring incorporation of radiolabeled thymidine. The results expressed in terms of IC50 (concentration effective to cause 50% suppression of proliferation) are shown in Table 1.
C3H/HeN mouse thymocytes were prepared and the action of IL-1 together with PHA, which stimulate proliferation of thymocyte, was measured using standard techniques (O'Gara, 1990; Mishell, 1980). Three- to six-week old C3H/HeN male mice (Simonson Laboratory, Gilroy, Calif.) were sacrificed by CO2 inhalation. Thymi were removed, separated from adherent non-thymic tissue, homogenized in Hank's balanced salt solution (HBSS, Gibco) using a glass homogenizer, and centrifuged at 200×g for 10 minutes at 15° C. Following an additional wash in HBSS, the thymocytes were resuspended in RPMI 1640 medium containing 50 uM 2-mercaptoethanol, 2 mM glutamine, 1 mM sodium pyruvate, non-essential amino acids 100 U/ml penicillin, 100 μg/ml streptomycin, and 10% heat-inactivated fetal bovine serum.
Cells were cultured in round-bottom 96 well microtiter tissue culture plates, 6×10^5 cells per well, in a volume of 100 μl. Recombinant human IL-1β (R & D Systems #201-LB) together with Phytohemagglutinin P (PHA, Pharmacia) were added to the cells in volume of 25 μl per well to achieve a final concentration of 0.08 ng/ml and 10 μg/ml, respectively. Samples were dissolved in DMSO (10 mg/ml), then diluted in culture medium. Twenty five microliters of the test sample was added to each well to achieve the final compound concentrations for each experiment. Cells with PHA together with IL-1 served as controls. The total volume for each well was 150 μl.
Plates were incubated at 37° C. in a 5% CO2 incubator for 72 hours. Fifty microliters of culture medium containing 0.5 μCi (^3 H)-thymidine (Amersham, 49 Ci/mmol) was added to each well prior to the last 18 hours of incubation. Cells were then harvested and counted. The results were reported as counts per minute (cpm) per 6×10^5 cells.
The following formula was used to calculate the percent of suppression of IL-1 activity, and IC50 (concentration of sample yielding 50% suppression of proliferation) was used to indicate the suppressive activity of the sample.
% suppression of IL-1 activity=(1-sample cpm/(IL-1+PHA control

The structures appear in SMILES notation. Where a name gives a salt, the structure may show the parent alone.

By IC50 is commonly meant the concentration at which inhibition is half-maximal.

On to `CC(C)C12OC1C1OC13C1(C)CCC4=C(COC4=O)C1CC1OC13C2OC(=O)CCC(=O)O` (stereo not shown) [YM-276, Triptolide Succinate Lysine Salt], for which the “MLR Assay IC50” value in assay [1] is 0.063 µg/mL. In addition, the figures for the IC50 in assay [1] (read-out: MLR Assay IC50) and in assay [2] (read-out: IL-1 Assay IC50) were 0.104 µM and 0.238 µM, respectively. For the same compound, the “IL-1 Assay IC50” value in assay [2] came to 0.144 µg/mL.

(Values after patent publication US5962516A, “Immunosuppressive compounds and methods” (priority 1999, dated 1999).)
